In article PMC3382786, “Anti-Hyperglycemic Effect of Chebulagic Acid from the Fruits of Terminalia chebula Retz” (International Journal of Molecular Sciences, 2012):
In brackets after ≈: the same amount, converted by molar mass.

Key:
[1] = molecular target: T1, rat intestinal α-glucosidase (maltase activity); test: maltose hydrolysis, liberated glucose by glucose oxidase; format: biochemical; conditions: maltose 3.5 mM stock (0.35 of 0.5 mL); 0.1 M potassium phosphate pH 6.3; 37 °C, 15 min; crude enzyme
T1 construct: gene Mgam; crude native enzyme solution from rat intestinal acetone powder (Sigma-Aldrich); maltose hydrolysis; not purified

[2] = test system: T2, Caco-2 maltase (maltose-hydrolysis activity of α-glucosidase); test: maltose hydrolysis on Caco-2 monolayer, liberated glucose by glucose oxidase; format: cell-based, Homo sapiens; conditions: 28 mM maltose in PBS; 37 °C, 2 h; reversible
T2 construct: gene SI; native enzyme on the apical side of differentiated Caco-2 monolayer

- IC50 [1]: 37 µg/mL (≈ 38.8 µM)
Compound: O=C(O)C[C@@H]1C(=O)O[C@H]2[C@@H]3OC(=O)c4cc(O)c(O)c(O)c4-c4c(cc(O)c(O)c4O)C(=O)OC[C@H]2O[C@@H](OC(=O)c2cc(O)c(O)c(O)c2)[C@@H]3OC(=O)c2cc(O)c(O)c3c2[C@H]1[C@H](O)C(=O)O3 [chebulagic acid]
- % inhibition at 0.5 mM/well [2]: 73%
